Test results published in patent publication US20080119452A1, “METHODS FOR ENHANCING COGNITIVE FUNCTION” (priority 2006, published 2008).
Read-outs that look alike come from different tables or passages of the source.

Experiments:
rats = assay: Object recognition task (time spent on novel vs familiar object); type: in vivo, rat
Text: Effect of Compounds in Object Recognition Task
Spending more time on the novel than on the familiar object indicates memory for the latter. Vehicle-treated rats spent a mean of 63% of time on the novel object. The means for all of the doses of test articles were numerically higher with values of: 70 and 78% for galantamine, 71 and 75% for a first representative compound of formula IV, and 73 and 81% for a second representative compound of formula IV.
Ennaceur A and Delacour J (1988) A new one-trial test for neurobiological studies of memory in rats. 1: Behavioral data. Behav Brain Res 31: 47-59.

mouse = details: sub-optimal analgesic dose, cited from earlier work

Row | Compound | % Time Novel Object (Mean ± SEM) (rats; 0.3 mg/kg p.o., 0.3 mg/kg) | % Time Novel Object (Mean ± SEM) (rats; 0.3 mg/kg p.o., listed as galantamine, 0.3 mg/kg) | % Time Novel Object (Mean ± SEM) (rats; 1.7 mg/kg p.o., 1.7 mg/kg) | % Time Novel Object (Mean ± SEM) (rats; 1.7 mg/kg p.o., listed as galantamine, 1.7 mg/kg) | effect on memory consolidation (mouse; 3 nmol/mouse i.c.v.) | effect on memory consolidation (mouse; 100 mg/kg oral administration)
1 | COc1ccc2c3c1O[C@H]1C[C@@H](O)C=C[C@@]31CCN(C)C2 [Galantamine, galantamine] | 70 ± 6% | 70% | 78 ± 5 % | 78% | – | –
2 | rubiscolin-6 | – | – | – | – | enhance memory consolidation | enhance memory consolidation
